Our source for the Activity and Drug metabolism values is ChEMBL document CHEMBL4673233, “Discovery of novel (6S/12aS)-heptachpyridone capable of inhibiting thrombosis in vivo” (Bioorg Med Chem Lett, 2020).

Calls of active or inactive are those of the source. No cut-off for these calls is given here.

The subject of data set [1] is Rattus norvegicus. Put plainly: Antithrombotic activity in rat model of inferior vena cava ligation-induced venous thrombosis assessed as reduction in venous thrombus weight at 4.87 umol/kg, po. It is filed as functional, organism-based. Conditions: dose 4.87 µmol/kg.
Data set [2] can be described thus: Toxicity in inferior vena cava ligation-induced venous thrombosis rat model assessed as bleeding time at 4.87 umol/kg. Conditions: in vivo, dose 4.87 µmol/kg.
The nature of data set [3]: Toxicity in inferior vena cava ligation-induced venous thrombosis rat model assessed as clotting time at 4.87 umol/kg. Conditions: in vivo, dose 4.87 µmol/kg.
A short description of data set [4]: Toxicity in inferior vena cava ligation-induced venous thrombosis rat model assessed as international normalized ratio measure of prothrombin time and exogenous coagulation pathway at 4.87 umol/kg. Conditions: in vivo, dose 1 µmol/kg.
Data set [5] can be described thus: Drug metabolism in rat plasma assessed as formation of 6s/12as-bisdimethoxyethylheptachpyridone incubated for 1 hr by HPLC-FT-ICR-MS analysis. The class given is ADME, cell-free.
Data set [6] concerns Rattus norvegicus. Description: Antithrombotic activity in rat model of thread-induced arterial thrombosis assessed as reduction artery thrombus at 167 umol/kg, po. Conditions: dose 167.0 µmol/kg. It is filed as functional, organism-based.
The nature of data set [7]: Drug metabolism in rat plasma assessed as formation of 6s/12as-heptachpyridone incubated for 1 hr by HPLC-FT-ICR-MS analysis. It is filed as ADME, cell-free.
In data set [8] the test system is Rattus norvegicus. Description: Antithrombotic activity in rat model of inferior vena cava ligation-induced venous thrombosis assessed as reduction in venous thrombus weight at 1 umol/kg, po. The class given is functional, organism-based. Conditions: dose 1.0 µmol/kg.
Data set [9] in a line: Toxicity in inferior vena cava ligation-induced venous thrombosis rat model assessed as clotting time at 1 umol/kg. Conditions: in vivo, dose 1 µmol/kg.
Data set [10] relates to Rattus norvegicus. Description: Antithrombotic activity in rat model of thread-induced arterial thrombosis assessed as reduction artery thrombus at 1 umol/kg, po. Conditions: dose 1.0 µmol/kg. It is filed as functional, organism-based.
Data set [11] can be described thus: Toxicity in inferior vena cava ligation-induced venous thrombosis rat model assessed as bleeding time at 1 umol/kg. Conditions: in vivo, dose 1 µmol/kg.
The nature of data set [12]: Toxicity in inferior vena cava ligation-induced venous thrombosis rat model assessed as international normalized ratio measure of prothrombin time and exogenous coagulation pathway at 1 umol/kg. Conditions: in vivo, dose 1 µmol/kg.

On to `CC(=O)CC(c1ccccc1)c1c(O)c2ccccc2oc1=O` (configuration not stated) [WARFARIN], for which, in the data set on Rattus norvegicus [1], the result was Active. The Activity result in data set [2], in data set [3] and in data set [4] was “Toxic” each time.
Turning to `COC(C[C@@H]1N[C@H](C(=O)O)Cc2c1[nH]c1ccccc21)OC`, the Drug metabolism result in data set [5] was “Metabolite_Detected”.
On to `CC(=O)Oc1ccccc1C(=O)O`, for which the result in the data set on Rattus norvegicus [6] was Active.
Consider `COC(C[C@H]1c2[nH]c3ccccc3c2C[C@H]2C(=O)N3[C@@H](Cc4c([nH]c5ccccc45)[C@@H]3CC(OC)OC)C(=O)N21)OC`, for which the Drug metabolism result in data set [7] was “Metabolite_Detected”.
Turning to `O=CC[C@H]1c2[nH]c3ccccc3c2C[C@H]2C(=O)N3[C@@H](Cc4c([nH]c5ccccc45)[C@@H]3CC=O)C(=O)N21`, the result in the data set on Rattus norvegicus [8] and with Rattus norvegicus [10] was Active. The Activity entry in [9], in data set [11] and in [12] was “Non-Toxic” throughout.
